Assay results reported in ChEMBL document CHEMBL5143589, “Drugging the Next Undruggable KRAS Allele-Gly12Asp” (J Med Chem, 2022).

Experiments:
GTPase KRas [1] = biological target: T1, GTPase KRas (Homo sapiens, UniProt P01116); test: Binding affinity to KRAS (unknown origin) assessed as inhibition constant
Target sequence in this assay (P01116 whole entry): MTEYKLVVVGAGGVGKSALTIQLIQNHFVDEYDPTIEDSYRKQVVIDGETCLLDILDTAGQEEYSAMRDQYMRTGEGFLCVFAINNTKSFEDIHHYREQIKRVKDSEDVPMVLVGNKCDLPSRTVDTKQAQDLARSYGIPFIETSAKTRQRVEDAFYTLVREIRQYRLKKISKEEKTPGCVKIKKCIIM

GTPase KRas [2] = biological target: T1, GTPase KRas
Target sequence in this assay (P01116 whole entry, looked up): as the sequence (P01116 whole entry) above
Description: Binding affinity to KRAS (unknown origin) assessed as inactivation constant

[3] = Inhibition of KRAS […] mutant (unknown origin) by HTRF assay; parameters: species or system Homo sapiens
[4] = Binding affinity to KRAS […] mutant (unknown origin) assessed as dissociation constant; parameters: species or system Homo sapiens
[5] = Inhibition of ERK phosphorylation in human AGS cells; format: cell-based
AGS = test: Antiproliferative activity against human AGS cells assessed as reduction of cell viability; format: functional, cell-based
MKN-1 = test: Antiproliferative activity against human MKN-1 cells assessed as reduction of cell viability; format: functional, cell-based

| Compound | IC50 [3] | Kd [4] | other results |
| --- | --- | --- | --- |
| C=CC(=O)N1CCN(c2ncnc3c(F)c(-c4c(O)cccc4F)c(Cl)cc23)CC1 |  |  | Ki (GTPase KRas [1]): 31 µM; Kinact (GTPase KRas [2]): 0.03 s⁻¹ |
| Oc1cc(-c2ncc3c(N4CC5CCC(C4)N5)nc(OC[C@@]45CCCN4C[C@H](F)C5)nc3c2F)c2ccccc2c1 | ≤ 2 nM |  |  |
| C#Cc1c(F)ccc2cc(O)cc(-c3ncc4c(N5CC6CCC(C5)N6)nc(OC[C@@]56CCCN5C[C@H](F)C6)nc4c3F)c12 [MRTX-1133] |  | 0.0002 nM | IC50 [5]: 2 nM; IC50 (AGS): 6 nM; IC50 (MKN-1): > 3000 nM |
| C#Cc1c(F)ccc2cccc(-c3ncc4c(N5CC6CCC(C5)N6)nc(OCC56CCCN5CCC6)nc4c3F)c12 | ≤ 2 nM |  |  |
| CN1CCC[C@H]1COc1nc(N2CCNCC2)c2cnc(-c3cccc4cccc(Cl)c34)c(F)c2n1 |  | 3500 nM |  |
| CN1CCC[C@H]1COc1nc(N2CC3CCC(C2)N3)c2cnc(-c3cc(O)cc4ccccc34)c(F)c2n1 | 5 nM | 0.8 nM |  |
